From ChEMBL document CHEMBL5614367, “Hydroxamic acid hybrids: Histone deacetylase inhibitors with anticancer therapeutic potency” (Eur J Med Chem, 2023)
pIC50: −log10 of the molar value.

Legend:
Histone deacetylase 8 = target: T1, Histone deacetylase 8 (Homo sapiens, UniProt Q9BY41); assay: Inhibition of HDAC8 (unknown origin)
T1 sequence (Q9BY41 whole entry): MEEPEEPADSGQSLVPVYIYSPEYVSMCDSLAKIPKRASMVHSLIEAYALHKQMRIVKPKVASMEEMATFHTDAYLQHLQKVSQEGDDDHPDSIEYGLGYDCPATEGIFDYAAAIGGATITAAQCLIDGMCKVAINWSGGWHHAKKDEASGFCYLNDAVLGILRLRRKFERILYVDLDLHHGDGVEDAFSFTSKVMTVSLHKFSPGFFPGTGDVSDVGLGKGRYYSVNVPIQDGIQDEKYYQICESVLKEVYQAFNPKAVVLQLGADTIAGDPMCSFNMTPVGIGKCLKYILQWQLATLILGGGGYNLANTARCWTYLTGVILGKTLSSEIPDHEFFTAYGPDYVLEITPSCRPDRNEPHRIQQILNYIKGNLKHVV

[1] = Metabolic stability in liver microsomes (unknown origin) assessed as half life; assay type: ADME, Microsome
BE(2)-C = assay: Antitumor activity against human BE2C cells xenografted in mouse assessed as tumor growth inhibition at 50 mg/kg, ip relative to control; assay type: functional; conditions: read-out: TGI
[2] = Metabolic stability in liver microsomes (unknown origin) assessed as clearance; assay type: ADME, Microsome; conditions: read-out: CLH
MC-38 = assay: Cytotoxicity against mouse MC38 cells assessed as inhibition of cell growth measured after 72 hrs by CellTiter-Glo luminescent viability assay; assay type: functional, cell-based; conditions: MC-38, 72 h
[3] = Cmax in tumor of female SCID mouse xenografted with human Daudi cells at 25 to 100 mg/kg, iv measured upto 24 hrs by LC-MS/MS analysis; assay type: ADME, organism-based, Neoplasm; conditions: dose 25-100 mg/kg
SW480 = assay: Cytotoxicity against human SW480 cells assessed as inhibition of cell growth measured after 72 hrs by CellTiter-Glo luminescent viability assay; assay type: functional, cell-based; conditions: SW480, 72 h
Histone deacetylase 3 = Histone deacetylase 3 (Homo sapiens, UniProt O15379); assay: Inhibition of HDAC3 (unknown origin)
NCI-H358 = assay: Cytotoxicity against human NCI-H358 cells assessed as inhibition of cell growth measured after 72 hrs by CellTiter-Glo luminescent viability assay; assay type: functional, cell-based; conditions: NCI-H358, 72 h
Calu-6 = assay: Cytotoxicity against human Calu-6 cells assessed as inhibition of cell growth measured after 72 hrs by CellTiter-Glo luminescent viability assay; assay type: functional, cell-based; conditions: Calu-6, 72 h
PC-9 = assay: Cytotoxicity against human PC-9 cells assessed as inhibition of cell growth measured after 72 hrs by CellTiter-Glo luminescent viability assay; assay type: functional, cell-based; conditions: PC-9, 72 h
Histone deacetylase 11 = Histone deacetylase 11 (Homo sapiens, UniProt Q96DB2); assay: Inhibition of HDAC11 (unknown origin)
[4] = target: Polyamine deacetylase HDAC10 (Homo sapiens, UniProt Q969S8); assay: Inhibition of HDAC10 (unknown origin)
TMD8 = assay: Cytotoxicity against human TMD8 cells assessed as inhibition of cell growth measured after 72 hrs by CellTiter-Glo luminescent viability assay; assay type: functional, cell-based; conditions: TMD8, 72 h
Ramos = assay: Cytotoxicity against human Ramos cells assessed as inhibition of cell growth measured after 72 hrs by CellTiter-Glo luminescent viability assay; assay type: functional, cell-based
SW-620 = assay: Cytotoxicity against human SW620 cells assessed as inhibition of cell growth measured after 72 hrs by CellTiter-Glo luminescent viability assay; assay type: functional, cell-based; conditions: SW-620, 72 h
NCI-H2122 = assay: Cytotoxicity against human NCI-H2122 cells assessed as inhibition of cell growth measured after 72 hrs by CellTiter-Glo luminescent viability assay; assay type: functional, cell-based; conditions: NCI-H2122, 72 h
LoVo = assay: Cytotoxicity against human LoVo cells assessed as inhibition of cell growth measured after 72 hrs by CellTiter-Glo luminescent viability assay; assay type: functional, cell-based
U-937 = assay: Cytotoxicity against human U-937 cells assessed as inhibition of cell growth measured after 72 hrs by CellTiter-Glo luminescent viability assay; assay type: functional, cell-based; conditions: U-937, 72 h
NCI-H1975 = assay: Cytotoxicity against human NCI-H1975 cells assessed as inhibition of cell growth measured after 72 hrs by CellTiter-Glo luminescent viability assay; assay type: functional, cell-based; conditions: NCI-H1975, 72 h
THP-1 = assay: Cytotoxicity against human THP-1 cells assessed as inhibition of cell growth measured after 72 hrs by CellTiter-Glo luminescent viability assay; assay type: functional, cell-based; conditions: THP-1, 72 h
[5] = Half life in tumor of female SCID mouse xenografted with human Daudi cells at 25 to 100 mg/kg, iv measured upto 24 hrs by LC-MS/MS analysis; assay type: ADME, organism-based, Neoplasm; conditions: dose 25-100 mg/kg
HCT-116 = assay: Cytotoxicity against human HCT-116 cells assessed as inhibition of cell growth measured after 72 hrs by CellTiter-Glo luminescent viability assay; assay type: functional, cell-based; conditions: HCT-116, 72 h
Histone deacetylase 2 = Histone deacetylase 2 (Homo sapiens, UniProt Q92769); assay: Inhibition of HDAC2 (unknown origin)
Histone deacetylase 1 = Histone deacetylase 1 (Homo sapiens, UniProt Q13547); assay: Inhibition of HDAC1 (unknown origin)
NCI-H460 = assay: Cytotoxicity against human NCI-H460 cells assessed as inhibition of cell growth measured after 72 hrs by CellTiter-Glo luminescent viability assay; assay type: functional, cell-based; conditions: NCI-H460, 72 h
Daudi = assay: Cytotoxicity against human Daudi cells assessed as inhibition of cell growth measured after 72 hrs by CellTiter-Glo luminescent viability assay; assay type: functional, cell-based
COLO 205 = assay: Cytotoxicity against human COLO 205 cells assessed as inhibition of cell growth measured after 72 hrs by CellTiter-Glo luminescent viability assay; assay type: functional, cell-based; conditions: COLO 205, 72 h
[6] = Inhibition of PI3K (unknown origin); design: species or system Homo sapiens
[7] = AUC in tumor of female SCID mouse xenografted with human Daudi cells at 25 to 100 mg/kg, iv measured upto 24 hrs by LC-MS/MS analysis; assay type: ADME, organism-based, Neoplasm; conditions: in vivo, dose 25-100 mg/kg
K562 = assay: Cytotoxicity against human K562 cells assessed as inhibition of cell growth measured after 72 hrs by CellTiter-Glo luminescent viability assay; assay type: functional, cell-based; conditions: K562, 72 h
A2780 = assay: Antiproliferative activity against human A2780 cells assessed as inhibition of cell growth incubated for 72 hrs by CCK-8 assay; assay type: functional, cell-based; conditions: A2780, 72 h
SK-OV-3 [8] = assay: Antitumor activity against human SK-OV-3 cells xenografted in female Balb/c nude mouse assessed as reduction in tumor growth at 50 mg/kg, sc administered once a day and measured every 2 to 3 days for 19 days relative to control; assay type: functional; design: scale not given: the % may be the effect or the level left; conditions: time 19 day
[9] = target: T2, Protein deacetylase HDAC6 (Homo sapiens, UniProt Q9UBN7); assay: Inhibition of HDAC6 (unknown origin)
T2 sequence (Q9UBN7 whole entry): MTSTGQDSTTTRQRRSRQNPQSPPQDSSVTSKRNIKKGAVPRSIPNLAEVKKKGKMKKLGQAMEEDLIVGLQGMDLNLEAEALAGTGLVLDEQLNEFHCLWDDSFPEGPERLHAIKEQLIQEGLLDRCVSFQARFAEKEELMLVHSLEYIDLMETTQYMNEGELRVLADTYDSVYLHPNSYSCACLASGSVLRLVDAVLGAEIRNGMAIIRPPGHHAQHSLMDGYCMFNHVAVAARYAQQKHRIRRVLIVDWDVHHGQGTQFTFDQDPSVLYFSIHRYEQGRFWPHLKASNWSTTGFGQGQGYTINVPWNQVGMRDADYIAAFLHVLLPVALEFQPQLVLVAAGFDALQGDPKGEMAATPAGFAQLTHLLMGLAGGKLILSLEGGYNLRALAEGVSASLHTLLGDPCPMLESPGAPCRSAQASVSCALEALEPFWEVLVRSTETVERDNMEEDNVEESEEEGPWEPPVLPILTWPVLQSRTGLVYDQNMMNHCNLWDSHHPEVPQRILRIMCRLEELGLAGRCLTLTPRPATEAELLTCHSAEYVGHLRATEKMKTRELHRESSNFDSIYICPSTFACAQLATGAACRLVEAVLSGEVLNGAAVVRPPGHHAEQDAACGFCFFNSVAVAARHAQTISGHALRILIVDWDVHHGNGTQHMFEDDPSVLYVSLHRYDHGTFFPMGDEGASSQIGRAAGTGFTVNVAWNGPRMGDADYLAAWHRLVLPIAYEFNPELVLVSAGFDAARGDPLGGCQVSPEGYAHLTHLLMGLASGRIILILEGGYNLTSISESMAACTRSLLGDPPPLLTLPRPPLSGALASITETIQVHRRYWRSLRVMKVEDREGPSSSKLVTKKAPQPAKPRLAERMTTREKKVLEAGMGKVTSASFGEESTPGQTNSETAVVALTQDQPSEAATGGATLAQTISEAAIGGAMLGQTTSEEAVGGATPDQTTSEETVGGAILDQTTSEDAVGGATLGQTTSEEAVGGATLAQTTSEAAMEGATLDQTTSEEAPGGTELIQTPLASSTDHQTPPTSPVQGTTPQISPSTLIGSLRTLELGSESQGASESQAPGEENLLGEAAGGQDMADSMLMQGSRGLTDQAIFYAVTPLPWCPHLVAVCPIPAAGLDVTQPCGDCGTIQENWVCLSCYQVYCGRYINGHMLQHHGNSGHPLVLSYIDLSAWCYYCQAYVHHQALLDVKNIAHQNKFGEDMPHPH

SK-OV-3 [10] = assay: Antiproliferative activity against human SK-OV-3 cells assessed as inhibition of cell growth incubated for 72 hrs by CCK-8 assay; assay type: functional, cell-based; conditions: SK-OV-3, 72 h
C6 [11] = assay: cells; assay type: functional, cell-based; conditions: Rattus norvegicus, C6, 72 h
Description: Antiproliferative activity against rat C6 cells assessed as inhibition of cell growth measured after 72 hrs by MTT assay

U-87 MG [12] = assay: cells; assay type: functional, cell-based, U-87MG ATCC; conditions: Homo sapiens, 72 h
Description: Antiproliferative activity against human U-87 MG cells assessed as inhibition of cell growth measured after 72 hrs by MTT assay

C6 [13] = assay: Antitumor activity against rat C6 cells allografted in Sprague-Dawley rat assessed as survival time at 20 mg/kg, po measured for 20 days; assay type: functional; conditions: time 20 day
U-87 MG [14] = assay: Antitumor activity against luciferase-transferred human U-87 MG cells xenografted in athymic nude mouse assessed as survival time at 25 mg/kg, po measured for 20 days; assay type: functional, U-87MG ATCC; conditions: time 20 day

Sequence of Histone deacetylase 3 (O15379 whole entry): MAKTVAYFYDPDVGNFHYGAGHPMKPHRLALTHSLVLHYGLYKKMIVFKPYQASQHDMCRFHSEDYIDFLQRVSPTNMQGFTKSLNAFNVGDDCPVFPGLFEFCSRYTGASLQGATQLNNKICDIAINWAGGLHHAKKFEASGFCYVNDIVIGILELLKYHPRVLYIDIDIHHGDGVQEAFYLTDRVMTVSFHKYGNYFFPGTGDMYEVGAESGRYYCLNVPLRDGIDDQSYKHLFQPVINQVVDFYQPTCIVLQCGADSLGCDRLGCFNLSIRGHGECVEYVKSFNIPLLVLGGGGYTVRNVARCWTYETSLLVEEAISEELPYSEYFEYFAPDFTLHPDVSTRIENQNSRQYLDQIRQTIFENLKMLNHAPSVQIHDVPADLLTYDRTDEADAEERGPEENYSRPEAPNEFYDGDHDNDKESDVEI
Sequence of Histone deacetylase 11 (Q96DB2 whole entry): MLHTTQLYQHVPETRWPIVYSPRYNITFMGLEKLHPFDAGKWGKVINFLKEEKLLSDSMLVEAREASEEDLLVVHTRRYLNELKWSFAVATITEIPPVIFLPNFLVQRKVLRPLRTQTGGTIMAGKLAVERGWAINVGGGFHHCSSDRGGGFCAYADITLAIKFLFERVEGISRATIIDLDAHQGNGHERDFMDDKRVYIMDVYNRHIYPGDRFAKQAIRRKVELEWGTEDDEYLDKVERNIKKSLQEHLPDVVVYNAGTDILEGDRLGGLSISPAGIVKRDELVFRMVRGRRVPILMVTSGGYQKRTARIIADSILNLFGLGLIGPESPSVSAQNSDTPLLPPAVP
Sequence of Histone deacetylase 2 (Q92769 whole entry): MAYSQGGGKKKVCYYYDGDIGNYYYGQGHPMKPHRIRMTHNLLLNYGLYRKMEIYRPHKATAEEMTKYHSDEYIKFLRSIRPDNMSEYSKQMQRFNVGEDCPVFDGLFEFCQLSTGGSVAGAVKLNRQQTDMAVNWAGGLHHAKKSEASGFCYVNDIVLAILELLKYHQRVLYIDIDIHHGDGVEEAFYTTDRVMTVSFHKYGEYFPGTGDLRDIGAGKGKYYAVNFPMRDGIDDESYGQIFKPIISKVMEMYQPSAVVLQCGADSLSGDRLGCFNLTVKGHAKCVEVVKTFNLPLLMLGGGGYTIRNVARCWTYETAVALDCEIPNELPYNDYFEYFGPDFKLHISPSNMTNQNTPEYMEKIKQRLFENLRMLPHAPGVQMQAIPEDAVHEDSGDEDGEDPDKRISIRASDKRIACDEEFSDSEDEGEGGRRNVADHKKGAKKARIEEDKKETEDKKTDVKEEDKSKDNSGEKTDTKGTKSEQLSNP
Sequence of Histone deacetylase 1 (Q13547 whole entry): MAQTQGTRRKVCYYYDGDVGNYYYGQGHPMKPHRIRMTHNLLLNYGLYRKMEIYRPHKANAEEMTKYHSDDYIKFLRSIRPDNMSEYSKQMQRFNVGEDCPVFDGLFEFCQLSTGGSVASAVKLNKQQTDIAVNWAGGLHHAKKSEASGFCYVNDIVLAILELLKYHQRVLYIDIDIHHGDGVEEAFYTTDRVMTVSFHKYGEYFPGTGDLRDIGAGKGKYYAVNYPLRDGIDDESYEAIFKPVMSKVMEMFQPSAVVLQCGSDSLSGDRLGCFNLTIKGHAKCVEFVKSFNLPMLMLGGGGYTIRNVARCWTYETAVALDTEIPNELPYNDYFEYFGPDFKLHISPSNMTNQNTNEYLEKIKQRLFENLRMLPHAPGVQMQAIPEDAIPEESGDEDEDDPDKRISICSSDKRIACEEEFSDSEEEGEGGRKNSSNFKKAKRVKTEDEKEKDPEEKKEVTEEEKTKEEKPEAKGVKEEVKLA
Sequence of Polyamine deacetylase HDAC10 (Q969S8 whole entry): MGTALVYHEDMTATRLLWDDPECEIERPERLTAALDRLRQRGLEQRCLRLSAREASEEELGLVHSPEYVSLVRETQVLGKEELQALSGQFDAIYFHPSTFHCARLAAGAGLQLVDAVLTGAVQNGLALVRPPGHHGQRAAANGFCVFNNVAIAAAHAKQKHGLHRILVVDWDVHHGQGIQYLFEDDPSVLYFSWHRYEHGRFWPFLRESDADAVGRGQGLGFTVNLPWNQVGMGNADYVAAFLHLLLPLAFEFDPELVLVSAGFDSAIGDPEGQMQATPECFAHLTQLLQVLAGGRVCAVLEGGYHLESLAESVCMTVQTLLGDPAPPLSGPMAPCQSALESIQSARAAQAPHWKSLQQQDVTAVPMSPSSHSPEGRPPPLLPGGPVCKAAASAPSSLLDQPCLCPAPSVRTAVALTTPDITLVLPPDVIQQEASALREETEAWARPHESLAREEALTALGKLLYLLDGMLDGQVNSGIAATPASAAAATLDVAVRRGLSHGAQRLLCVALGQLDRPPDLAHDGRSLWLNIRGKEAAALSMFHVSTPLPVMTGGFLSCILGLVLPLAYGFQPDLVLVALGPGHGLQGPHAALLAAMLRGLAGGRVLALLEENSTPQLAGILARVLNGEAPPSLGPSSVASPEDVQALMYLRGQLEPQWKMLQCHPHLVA

In the case of `COc1cc(-c2cccc(-c3ccc(/C=C/C(=O)NO)cc3)n2)cc(OC)c1OC`, the pIC50 (Histone deacetylase 8) was 6.93, the half-life [1] was 54.8 min and the inhibition in vivo at 50 mg/kg (BE(2)-C) was 61%. It also gave a CLint scaled [2] of 22.8 mL/min/kg.

For `CNc1ccc(-c2nc(N3CCOCC3)c3sc(CN(C)c4ncc(C(=O)NO)cn4)cc3n2)cn1`, the pIC50 (MC-38) was 9.52, the Cmax [3] was 14500 ng/g and the pIC50 (SW480) was 9.52. The pIC50 (Histone deacetylase 3) was 9.05, the pIC50 (NCI-H358) was 9.52 and the pIC50 (Calu-6) was 9.52. It also gave a pIC50 (PC-9) of 9.52, a pIC50 (Histone deacetylase 11) of 9.05 and a pIC50 [4] of 9.05. The pIC50 (TMD8) was 9.52, the pIC50 (Ramos) was 9.52 and the pIC50 (SW-620) was 9.52. For the same compound, the pIC50 (NCI-H2122) was 9.52, the pIC50 (LoVo) was 9.52 and the pIC50 (U-937) was 9.52. It also gave a pIC50 (NCI-H1975) of 9.52, a pIC50 (THP-1) of 9.52 and a half-life [5] of 474 min. The pIC50 (HCT-116) was 9.52, the pIC50 (Histone deacetylase 2) was 9.05 and the pIC50 (Histone deacetylase 1) was 9.05. For the same compound, the pIC50 (NCI-H460) was 9.52, the pIC50 (Daudi) was 9.52 and the pIC50 (COLO 205) was 9.52. It also gave a pIC50 [6] of 8.03, an AUC [7] of 17157.9 ng·h/g and a pIC50 (K562) of 9.52.

In the case of `COc1ccc(-c2cc(-c3ccc(C(C)C)cc3)cnc2NCc2ccc(C(=O)NO)cc2)cc1`, the pIC50 (A2780) was 5.27, the Activity (SK-OV-3 [8]) was roughly 35% and the pIC50 [9] was 6.74. For the same compound, the pIC50 (SK-OV-3 [10]) was 6.06.

For `O=C(/C=C/c1cccc(S(=O)(=O)n2ccc3cccnc32)c1)NO`, the pIC50 (C6 [11]) was 5.65, the pIC50 (U-87 MG [12]) was 5.73 and the Survival (C6 [13]) was greater than 20 days. It also gave a pIC50 [9] of 7.49 and a Survival (U-87 MG [14]) greater than 20 days.
